Measured values reported in publication PMC9635468, “Biological evaluation, docking studies, and in silico ADME prediction of some pyrimidine and pyridine derivatives as potential EGFR^WT and EGFR^T790M inhibitors” (Journal of Enzyme Inhibition and Medicinal Chemistry, 2022).
In brackets after ≈: the same amount, converted by molar mass.

Legend:
EGFR (Wild) = EGFR (Wild) (Homo sapiens, UniProt P00533); experiment: EGFR kinase (wild) inhibition assay, Kinase-Glo MAX
Method: The reagent, Kinase-Glo MAX, was used[50], and luminescence was detected by applying the microplate reader.
The assay protocol was carried out by adding 25 μL of the master mixture: (6 μL Kinase assay buffer + 1 μL ATP (500 μM) + 1 μL PTK substrate + 17 μL water) to each well. Thereafter, 5 μL of the inhibitor solution was added to each well labeled as “test inhibitor”. Meanwhile, for the “positive control" and “blank”, 5 μL of the same solution without inhibitor (inhibitor buffer) was added. To the wells designated as "blank", add 20 μL of Kinase assay buffer. The amount of EGFR required for the assay was calculated and the enzyme was diluted to 1 ng/μL with Kinase assay buffer. The reaction was initiated by adding 20 μL of diluted EGFR enzyme to the wells designated as “positive control” and "test inhibitor control". The wells were incubated at 30°C for 40 minutes, then 50 μL of Kinase-Glo Max reagent was added to each well. The plate was incubated at room temperature for 15 minutes and luminescence was measured using the microplate reader.

HEPG2 cell line = experiment: Annexin V-FITC apoptosis detection by flow cytometry; format: cell-based, human; conditions: HEPG2, 3.8 µg/mL, 48 h; control 16.73
Method: Furthermore, both compounds 8 and 14 were evaluated for apoptosis using flow cytometry on the HEPG2 cell line. The % rate of total apoptosis for control, compound 8, and compound 14 were 16.73, 22.44, and 48.36 (%), respectively.
Liver cancer cells (HEPG2) were seeded in RPMI-1640 media at a density of 250 X 10^3 cells/mL. Both cell cycle and apoptosis evaluations were performed at 3.8 µg/mL for both compounds 8 and 14. The detailed method is described in the Supplementary data (SI 3).
Annexin V-FITC apoptosis detection kit (Beckman Coulter, California, USA) was used as the manufacturer’s recommendation by using (Beckman Coulter EPICS XL flow cytometer, California, USA). […]
Cell cycle evaluation was performed at 3.8 µg/mL of both compounds […]. After 48 h, the cells were harvested, stained and DNA content was quantified.
The most promising cytotoxic compounds (8 and 14) were further assessed for their inhibitory potential against both EGFR Wild and EGFRT T790M. […] The amount of EGFR required for the assay was calculated and the enzyme was diluted to 1 ng/μL with Kinase assay buffer. […] The plate was incubated at room temperature for 15 minutes and luminescence was measured using the microplate reader.

HCT116 = experiment: Cytotoxicity screening, SRB assay, HCT116; format: cell-based, human; conditions: for HCT116 IC50: 48 h; for IC50: Homo sapiens, HCT-116, 48 h
Method: (§1) In this study, a panel of cell lines was examined for their chemosensitivity. Different concentrations of the synthesised pyridines and pyrimidine derivatives were used in this study (5, 12.5, 25, and 50 µg/mL) for all the examined cell lines. In this study, breast tumour cell line (MCF7), hepatocellular carcinoma cell line (HEPG2), larynx cell line (HEP2), lung cancer cell line (H460), colon cancer cell line (HCT116 and Caco2), hypopharyngeal cell line (FADU), and normal Vero cell line were applied. The full methodology is described in the Supplementary data (SI 1).
(§2) SI 1: Cytotoxicity screening against human cancer cell lines
(§3) In this study, a panel of cell lines was examined for their chemosensitivity. Different concentrations of the synthesized pyridines and pyrimidines derivatives were used in this study (5, 12.5, 25, and 50 µg/ml) for all the examined cell lines. The most sensitive cell line to the treatment regimen was selected and subjected to further investigations to explore the mechanism of this interaction. Human breast tumor cell line (MCF7), human hepatocellular carcinoma cell line (HEPG2), human larynx cell line (HEP2), human lung cancer cell line (H460), human colon cancer cell line (HCT116 and Caco2), human hypopharyngeal cell line (FaDu), and normal cell line Vero were used in this study. It was obtained from the American Type Culture Collection (ATCC, Minnesota, USA). The tumor cell line was maintained at National Cancer Institute (NCI), Cairo, Egypt.
(§4) The antitumor activities of pyridines and pyrimidines derivatives and all tested cell lines were evaluated by sulphorhodamine-B (SRB) assay 1. Briefly, cells were seeded at a density of 3 × 10^3 cells/well in 96-well microtiter plates. They were left to attach for 24 h before incubation with drugs. Next, cells were treated with different concentrations of 5, 12.5, 25, and 50 µg/ml for MCF7, HEPG2, HEP2, HCT116, Caco2, H460, FaDu, and Vero cells. For each concentration, three wells were used and incubation was continued for 48 h. DMSO was used as a control vehicle (1 % v/v). At the end of incubation, cells were fixed with 20 % trichloroacetic acid and stained with 0.4 % SRB dye. The optical density (O.D.) of each well was measured spectrophotometrically at 570 nm using an ELISA microplate reader (TECAN sunrise™, Germany). The mean survival fraction at each drug concentration was calculated as follows: […]
(§5) O.D. of the treated cells/O.D. of the control cells. The IC50 (concentration that produces 50% of cell growth inhibition) value of each drug was calculated using sigmoidal dose-response curve-fitting models (Graph Pad Prizm software, version 5) 1.

H460 = experiment: Cytotoxicity screening, SRB assay, H460; format: cell-based, human; conditions: for H460 IC50: 48 h; for IC50: Homo sapiens, NCI-H460, 48 h
Method: as §1, §2, §3, §4, §5

FADU = experiment: Cytotoxicity screening, SRB assay, FADU; format: cell-based, human; conditions: 48 h; for IC50: Homo sapiens, FaDu
Method: as §1, §2, §3, §4, §5

T47D = experiment: Cytotoxicity screening, SRB assay, T47D; format: cell-based, human; conditions: Homo sapiens, T47D, 48 h
HEPG2 cells = experiment: Cell cycle DNA index analysis by flow cytometry; format: cell-based, human; conditions: HEPG2, 3.8 µg/mL, 48 h; for cells in G2/M phase: control 5.57%; for cells in G0/G1: control 92.7%
MCF7 = experiment: Cytotoxicity screening, SRB assay, MCF7; format: cell-based, human; conditions: for MCF7 IC50: 48 h; for IC50: Homo sapiens, MCF7, 48 h
Method: as §1, §2, §3, §4, §5

HEPG2 = experiment: Cytotoxicity screening, SRB assay, HEPG2; format: cell-based, human; conditions: for HEPG2 IC50: 48 h; for IC50: Homo sapiens, HepG2, 48 h
Method: as §1, §2, §3, §4, §5

VERO = experiment: Cytotoxicity screening, SRB assay, normal Vero cells; format: cell-based; conditions: 48 h, normal cell line; for IC50: Chlorocebus sabaeus, Vero
Method: as §1, §2, §3, §4, §5

Sequence of EGFR (Wild) (P00533 25-1210): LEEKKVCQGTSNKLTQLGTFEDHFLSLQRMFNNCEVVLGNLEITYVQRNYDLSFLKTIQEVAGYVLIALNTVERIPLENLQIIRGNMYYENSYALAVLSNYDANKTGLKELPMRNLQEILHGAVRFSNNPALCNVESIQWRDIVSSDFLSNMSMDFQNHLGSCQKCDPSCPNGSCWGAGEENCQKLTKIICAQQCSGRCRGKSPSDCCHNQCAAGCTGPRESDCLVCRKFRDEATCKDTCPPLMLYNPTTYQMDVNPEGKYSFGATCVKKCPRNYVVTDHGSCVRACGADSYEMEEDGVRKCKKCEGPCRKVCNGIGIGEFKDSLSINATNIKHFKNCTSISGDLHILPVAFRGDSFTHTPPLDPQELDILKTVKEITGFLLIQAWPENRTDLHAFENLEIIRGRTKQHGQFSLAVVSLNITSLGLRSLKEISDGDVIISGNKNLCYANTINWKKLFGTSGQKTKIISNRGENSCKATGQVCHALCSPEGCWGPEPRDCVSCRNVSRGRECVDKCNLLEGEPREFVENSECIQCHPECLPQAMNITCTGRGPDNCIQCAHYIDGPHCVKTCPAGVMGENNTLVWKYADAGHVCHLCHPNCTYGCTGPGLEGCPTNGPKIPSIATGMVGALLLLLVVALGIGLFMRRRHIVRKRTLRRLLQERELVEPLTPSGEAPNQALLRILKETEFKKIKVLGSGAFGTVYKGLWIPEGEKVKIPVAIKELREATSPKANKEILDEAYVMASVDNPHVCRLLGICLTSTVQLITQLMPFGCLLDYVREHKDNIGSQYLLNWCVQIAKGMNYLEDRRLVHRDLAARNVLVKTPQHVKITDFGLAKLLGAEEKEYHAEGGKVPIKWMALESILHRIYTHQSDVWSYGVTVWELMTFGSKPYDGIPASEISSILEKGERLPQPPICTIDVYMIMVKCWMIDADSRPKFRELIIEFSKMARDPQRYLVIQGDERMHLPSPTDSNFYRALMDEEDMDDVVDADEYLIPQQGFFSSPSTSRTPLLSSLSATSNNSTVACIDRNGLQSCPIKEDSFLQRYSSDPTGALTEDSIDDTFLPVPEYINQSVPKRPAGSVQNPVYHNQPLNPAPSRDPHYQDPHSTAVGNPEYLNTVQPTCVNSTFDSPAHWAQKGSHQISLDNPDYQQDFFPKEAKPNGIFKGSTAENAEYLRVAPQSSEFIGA

| Structure (SMILES) | IC50 (EGFR (Wild)) | % rate of total apoptosis (HEPG2 cell line) | HCT116 IC50 (HCT116) | IC50 (HCT116) | H460 IC50 (H460) | IC50 (H460) | FADU IC50 (FADU) | IC50 (FADU) | IC50 (T47D) | cells in G2/M phase (HEPG2 cells) | cells in G0/G1 (HEPG2 cells) | MCF7 IC50 (MCF7) | IC50 (MCF7) | HEPG2 IC50 (HEPG2) | IC50 (HEPG2) | IC50 (VERO) | VERO IC50 (VERO) |
| --- | --- | --- | --- | --- | --- | --- | --- | --- | --- | --- | --- | --- | --- | --- | --- | --- | --- |
| Oc1n[nH]c2nc(-c3ccco3)cc(-c3cccs3)c12 [Compound 8] | 131 ± 8 nM | 22.44% | 7.20 µg/mL | 4 µg/mL (≈ 14.1 µM) | 11.70 µg/mL | 8.5 µg/mL (≈ 30 µM) | 5.60 µg/mL | 3.8 µg/mL (≈ 13.4 µM) | 7.5 µg/mL (≈ 26.5 µM) | 34.4% | 61.4% | 4.10 µg/mL | 3.8 µg/mL (≈ 13.4 µM) | 3.80 µg/mL | 4 µg/mL (≈ 14.1 µM) | 4.3 µg/mL (≈ 15.2 µM) | 3.90 µg/mL |
| N#Cc1c(-c2cccs2)cc(-c2ccco2)[nH]c1=O [Compound 14] | 203 ± 12 nM | 48.36% | 3.90 µg/mL | 7.4 µg/mL (≈ 27.6 µM) | 8.00 µg/mL | 12.5 µg/mL (≈ 46.6 µM) | 3.90 µg/mL | 5.7 µg/mL (≈ 21.2 µM) | 4.7 µg/mL (≈ 17.5 µM) | 25.9% | 69.8% | 3.70 µg/mL | 7 µg/mL (≈ 26.1 µM) | 3.80 µg/mL | 3.6 µg/mL (≈ 13.4 µM) | 4 µg/mL (≈ 14.9 µM) | 4.60 µg/mL |
